{"source": "patent US9205064B2", "about": "“Methods for the diagnosis of oncological disorders using epimetabolic shifters, multidimensional intracellular molecules, or environmental influencers” (Berg LLC, priority 2009, dated 2015)", "key": {"[1]": {"conditions": "rats, oral; cited from earlier work"}, "MCF-7": {"tested_on": "MCF-7", "assay": "Nexin assay for apoptosis (Annexin-V-PE/7-AAD, flow cytometry)", "type": "cell-based", "conditions": "50 μM and 100 μM Q10, 24 hours", "text": "(§1) The 7AAD dye will enter into cells with permeabilized cell membranes; primarily those cells that are in late apoptosis. Annexin-V-PE is a dye that binds to Phosphotidyl serine, which is exposed on the outer surface of the plasma membrane in early apoptotic cells. The Nexin reagent thus can be used to differentiate between different populations of apoptotic cells in a flow cytometer."}, "SK-MEL28": {"tested_on": "SK-MEL28", "assay": "Nexin assay for apoptosis (Annexin-V-PE/7-AAD, flow cytometry)", "type": "cell-based", "conditions": "50 μM and 100 μM Q10, 24 hours", "text": "as §1"}, "PC-3": {"tested_on": "PC-3", "assay": "Nexin assay for apoptosis (Annexin-V-PE/7-AAD, flow cytometry)", "type": "cell-based", "conditions": "50 μM and 100 μM Q10, 24 hours; less than PaCa2", "text": "as §1"}, "SCC cells": {"tested_on": "SCC cells", "assay": "2-D gel electrophoresis proteomic analysis with mass spectrometry identification", "type": "cell-based", "conditions": "100 μM Q10, 24 hr", "text": "The gels were run in duplicate."}, "[2]": {"tested_on": "Succinate Dehydrogenase B in NCIE0808 Mitopreps", "assay": "Western blot of succinate dehydrogenase B in mitochondrial preparations", "type": "cell-based", "conditions": "mitochondrial preparations of cancer cells", "experimental": "The above blots were stripped by incubating for 30 minutes with methanol, followed by two 10 minute washes with TBS-T, then 30 minutes of incubation with Stripping buffer at 50 deg C., and followed by two washes with 100 ml or more of TBS-T for 30′ each. The blots were scanned in laser scanner to check for complete stripping. The blots were activated with methanol for 5 seconds, washed with water for 5 minutes, and TBST for 15 minutes. The blots were blocked for 1 hour with 5% blocking reagent in TBS-T at room temperature and then washed 3 times with TBS-T (1×-15′; 2×5′ each) and probed with the primary antibody for PKM2, SDHB or SDHC in 5% BSA in TBS-T by incubation overnight at 4 deg C. with gentle shaking. The primary antibody for SDHC (ABNOVA H00006391-M02; antimouse) was at 1:500 dilution. The primary antibody for SDHB was from Abcam ab4714-200; antimouse; at 1:1000 dilution. The primary antibody for Pyruvate Kinase M2 (PKM2) was from Novus Biologicals H00005315-D0IP; antirabbit; at 1:500 dilution. After incubation with primary antibodies, the membranes were washed 3 times with TBS-T (1×-15′; 2×5′ each) and probed with the secondary antibody (SDHB & C antimouse; and PKM2 antirabbit; 1:10,000 dilution) for 1 h on the orbital tilting shaker at room temperature. […]"}, "[3]": {"tested_on": "MCF-7 breast cancer cells", "assay": "SeaHorse XF analyzer OCR and ECAR", "type": "cell-based", "conditions": "absence and presence of stressors", "text": "Environmental influencers (e.g., MIMs or Epi-shifters) may also be identified by changes in cellular energetics. One example of the measurement of cellular energetics are the real-time measures of the consumption of molecular oxygen and/or the change in pH of the media of a cell culture. For example, the ability of a potential epi-shifter to modulate the metabolic state of a cell may be analyzed using, for example, the XF24 Analyzer (Seahorse, Inc.). This technology allows for real time detection of oxygen and pH changes in a monolayer of cells in order to evaluate the bioenergetics of a cell microenvironment. The XF24 Analyzer measures and compares the rates of oxygen consumption (OCR), which is a measure of aerobic metabolism, and extracellular acidification (ECAR), which is a measure of glycolysis, both key indicators of cellular energetics.\n(SeaHorse Biosciences Inc, North Billerica, Mass.).\nIn contrast, cancer cells (e.g., MCF-7, PaCa-2) are inherently primed to culture at higher levels of glucose compared to normal cells due to their glycolytic phenotype for maintenance in culture."}}}
{"compound": "COC1=C(OC)C(=O)C(C/C=C(\\C)CC/C=C(\\C)CC/C=C(\\C)CC/C=C(\\C)CC/C=C(\\C)CC/C=C(\\C)CC/C=C(\\C)CC/C=C(\\C)CC/C=C(\\C)CCC=C(C)C)=C(C)C1=O", "note": "[Q10, Coenzyme Q10]", "values": [{"measurement": "fraction of orally-administered CoQ10 absorbed", "setting": "[1]", "result": "2-3%"}, {"measurement": "apoptotic population", "setting": "MCF-7", "result": "increase only in early apoptotic population"}, {"measurement": "apoptotic population", "setting": "SK-MEL28", "result": "increase only in early apoptotic population"}, {"measurement": "early and late apoptotic population", "setting": "PC-3", "result": "increase"}, {"measurement": "HSP 70, spot 116: Response (further)", "setting": "SCC cells", "result": "decrease at 24 hr"}, {"measurement": "NM23 protein (NME1), spot 54: Response", "setting": "SCC cells", "result": "decrease at 24 hr"}, {"measurement": "SDH Subunit B protein levels", "setting": "[2]", "result": "increase SDH protein levels"}, {"measurement": "OCR values", "setting": "[3]", "result": "consistent reduction"}]}
